Converted amounts (≈) assume the structure as drawn. Where two headings read alike, the source gives them in different places. Blank lines part the entries; values can stand above or below the compound they belong to.
How the values were obtained:
[1] = system: 786-O; assay: Cell proliferation (Alamar Blue) assay, 786-O; format: cell-based, human
In short: (§1)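 Cells were seeded at 5000 cells/well and grown 16-24 h at 37° C./5% CO2. They were treated 24 h with compound at 10-0.0005 μM (3-fold dilutions, 1% DMSO). Viability was read by Alamar Blue fluorescence (ex 540/em 590 nm) after 1.5 h, and IC50 came from a variable-slope sigmoidal fit.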

[2] = Equilibrium solubility at different pHs and with SBECD; format: physicochemical; conditions: thermodynamic from solid
[3] = system: A431; assay: Cell proliferation (Alamar Blue) assay, A431; format: cell-based, human; conditions: Homo sapiens, A-431, 24 h
In short: as §1

[4] = Mouse plasma protein % unbound (ultracentrifuge method); format: in vitro ADME
[5] = Kinetic solubility (PBS, pH 7.4); format: physicochemical; conditions: aqueous buffer, kinetic from dmso stock
[6] = CD-1 Mouse Whole Blood Stability Assay; format: in vitro ADME; conditions: incubation at 37° C.
[7] = system: SJSA-1; assay: Cell proliferation (Alamar Blue) assay, SJSA-1; format: cell-based, human
In short: as §1

[8] = Rat IV pharmacokinetics (2 mg/kg); format: in vivo; conditions: male, SD, plasma
Description: Institutional Animal Ethical Committee (IAEC) of Jubilant Biosys (IAEC/JDC/2019/188R (for Mice) and IAEC/JDC/2019/189R (for Rat) nominated by CPCSEA (Committee for the Purpose of Control and Supervision of Experiments on Animals) approved the mice and rat pharmacokinetic experiments. Male Balb/c mice (˜6-8 weeks old with body weight range of 22-25 g) and male SD rats (6-8 weeks old with body weight range of 200-250 g) were procured from Vivo Biotech, Hyderabad, India. Animals were quarantined in Jubilant Biosys Animal House for a period of 7 days with a 12:12 h light: dark cycles, and prior to the study the animals were stratified as per body weight.
B) Procedure for rat: Intravenous and oral pharmacokinetics study was done at a dose 2 and 10 mg/kg at dose volume of 2 and 10 mL/Kg. Serial blood sampling was done and at each time point (˜200 μL) were collected from retro-orbital plexus at 0.083 (Only for IV), 0.25, 0.5, 1, 2, 4, 8, 10 (only for PO) and 24 h. Blood samples were collected in tubes containing K2.EDTA as anticoagulant and centrifuged for 5 min at 10,000 rpm in a refrigerated centrifuge (Biofuge, Heraeus, Germany) maintained at 4° C. for plasma separation.
Group I (IV) received test compound intravenously by tail vein at 2 mg/Kg in solution formulation prepared using 30% Kolliphore EL in WFI; dose volume: 2 mL/Kg; strength: 1 mg/mL.
Blood concentration-time data of test compound was analyzed by non-compartmental method using Phoenix WinNonlin Version 8.1.

[9] = Human hepatocyte metabolic stability; format: in vitro ADME
[10] = Rat hepatocyte metabolic stability; format: in vitro ADME
[11] = Human blood stability; format: in vitro ADME
[12] = in vitro; conditions: CD-1, mouse, plasma
[13] = CD-1, mouse, plasma, 2 μM
[14] = Homo sapiens, 786-0, 24 h, Table B-3, 786-O cells
[15] = Homo sapiens, SJSA-1, 24 h, Table B-3, head prints SJSB-1, 24 h, read-out: IC50 (μM) SJSB-1

Structure (SMILES): C#CC(=O)N1[C@@H](CCCC)Cc2c([nH]c3c(F)cc(F)cc23)[C@@H]1c1ccnn1C [Compound B-34]
- IC50 [1, 14]: 0.041 µM
- solubility ([2]; aqueous buffer, pH 3.0 PBS buffer, read-out: Eq. solubility pH 3.0 PBS buffer): < 1 µg/mL
- solubility ([2]; aqueous with cosolvent or surfactant or cyclodextrin, 20% SBECD (sulfobutyl ether cyclodextrin), read-out: Eq. solubility 20% SBECD): > 1010 µg/mL
- IC50 ([3]; Table B-3, A431 cells): 7.6 µM
- Mouse Plasma Protein % Unbound (Ultracentrifuge method, 4 h at 37° C.) ([4]; Table B-6): Not stable
- solubility kinetic ([5]; Table B-7): 11 µM (≈ 4.36 µg/mL)
- CD-1 Mouse Whole Blood Stability % Remaining ([6]; Table B-6, 0 min): 100.0%
- CD-1 Mouse Whole Blood Stability % Remaining ([6]; Table B-6, 30 min): 9.4%
- CD-1 Mouse Whole Blood Stability % Remaining ([6]; Table B-6, 60 min): 1.1%
- IC50 [7, 15]: 0.074 µM

Structure (SMILES): C#CC(=O)N1[C@@H](CCCC)Cc2c([nH]c3c(F)cc(F)cc23)[C@@H]1c1ccc(N2CCN(C)CC2)c(F)c1 [Compound B-53]
- IC50 [1, 14]: 0.029 µM
- fraction unbound at 2 μM [12]: 0.083
- IC50 ([3]; Table B-3, A431 cells): > 10 µM
- % Bound [13]: 91.7%
- % Remaining (t = 4 hr at 37 C.) [13]: 22.0%
- IC50 [7, 15]: 0.051 µM

Structure (SMILES): C#CC(=O)N1[C@@H](CCCC)Cc2c([nH]c3c(F)cc(F)cc23)[C@@H]1c1ccc(N)cc1 [Compound B-54]
- IC50 [1, 14]: 0.046 µM
- fraction unbound at 2 μM [12]: 0.097
- IC50 ([3]; Table B-3, A431 cells): > 10 µM
- % Bound [13]: 90.3%
- % Remaining (t = 4 hr at 37 C.) [13]: 31.6%
- IC50 [7, 15]: 0.069 µM

Structure (SMILES): C#CC(=O)N1[C@@H](CCCC)Cc2c([nH]c3c(F)cc(F)cc23)[C@@H]1C1CCCCC1 [Compound B-56]
- fraction unbound at 2 μM [12]: 0.11
- % Bound [13]: 89.0%
- % Remaining (t = 4 hr at 37 C.) [13]: 56.7%

The next lines start with the values.

- IC50 [1, 14]: 0.001 µM
- AUC(0-t) ([8]; read-out: Rat IV-PK AUC (0-t)): 431 ng·h/mL
- clearance ([8]; read-out: Rat IV-PK CL): 87 mL/min/kg
- half-life ([8]; read-out: Rat IV-PK T1/2): 0.5 h
- Vd ([8]; read-out: Rat IV-PK Vd): 3.5 L/kg
- human hepatocytes extr. Ratio [9]: 0.13
- human hepatocytes % met @ 180 min ([9]; 180 min): 3.5%
- half-life ([9]; human hepatocytes, read-out: human hepatocytes T1/2): 41.1 h
- hepatocyte CLint ([9]; human hepatocytes, read-out: human hepatocytes h Clintr (μL/min/10^6 cells)): 1.1 µL/min/1e6 cells
- IC50 ([3]; Table B-3, A431 cells): 6.7 µM
- solubility kinetic ([5]; Table B-4): < 1 µM
- rat hepatocytes extr. Ratio [10]: 0.7
- rat hepatocytes % met @ 180 min ([10]; 180 min): 72%
- half-life ([10]; rat hepatocytes, read-out: rat hepatocytes T1/2): 1.78 h
- hepatocyte CLint ([10]; rat hepatocytes, read-out: rat hepatocytes h Clintr (μL/min/10^6 cells)): 26 µL/min/1e6 cells
- IC50 [7, 15]: 0.001 µM
- human blood stability % remaining ([11]; 15 min): ~100%_15
- human blood stability % remaining ([11]; 30 min): 96%_30
- human blood stability % remaining ([11]; 45 min): 82%_45
- human blood stability % remaining ([11]; 60 min): 77%_60
- human blood stability % remaining ([11]; 120 min): 51%_120
Structure (SMILES): O=C(CCl)N1[C@@H](CC2CC2)Cc2c([nH]c3ccccc23)[C@@H]1c1ccc(NC23CC4CC(CC(C4)C2)C3)cc1 [Compound B-36]

- IC50 ([1]; Table C-3, 786-O cells, 24 h): 0.437 µM
- IC50 ([3]; Table C-3, A431 cells): 2.95 µM
- fraction unbound at 4 h ([4]; mouse, plasma, Table C-4, 4 h at 37° C.): 0.105
- CD-1 Mouse Whole Blood Stability % Remaining ([6]; Table C-4, 0 min): 100.0%
- CD-1 Mouse Whole Blood Stability % Remaining ([6]; Table C-4, 30 min): 74.4%
- CD-1 Mouse Whole Blood Stability % Remaining ([6]; Table C-4, 60 min): 61.0%
- IC50 ([7]; Table C-3, SJSA-1 cells, 24 h, read-out: IC50 (μM) SJSA-1): 0.332 µM
Structure (SMILES): C[C@H]1Cc2c([nH]c3ccccc23)[C@](C)(c2ccc(F)cc2)N1C(=O)CCl [Compound C-38]

- % Remaining (t = 4 hr at 37 C.) [13]: 101.2%
Structure (SMILES): CC(=O)CC(c1ccccc1)c1c(O)c2ccccc2oc1=O (stereo not drawn) [Warfarin, reference compound]

From US20220227765A1, “PYRIDO-INDOLE ANALOGUES AS GPX4 INHIBITORS” (Ferro Therapeutics, Inc., priority 2019, published 2022)
